Drawing on patent US20170044152A1, “COMPOUNDS THAT MODULATE INTRACELLULAR CALCIUM” (CalciMedica, Inc., priority 2012, published 2017), this text covers IC50 for 16 compounds.

In one experiment the test system is RBL-2H3 cells. The experiment can be described thus: Fluorescence-based assay of store-operated calcium entry in RBL-2H3 cells. To be noted: Rattus norvegicus, Table v, read-out: IC50 (nM) RBL. The class given is cell-based. The method, then:
B. Fluorescence-based Assay of Store-Operated Calcium Entry in RBL-2H3 Cells.
RBL-2H3 cells are obtained from ATCC and maintained in complete medium with 10% FBS at 37° C./6% CO2.
The day prior to performing the assay, RBL-2H3 cells are plated in 50 μL of complete medium in a 384 well plate. Cells are grown at 37° C./6% CO2 overnight and grow to 50-60% confluence by the next day. On the assay day, 1.5 μM Fluo-4-AM dye (Invitrogen) in complete medium is added and incubated for 1 hour at RT. Cells are washed twice in Ca^2+-free HBSS buffer and 35 μL Ca^2|-free HBSS buffer is added to each well. 10 μL of a test compound prepared in a Ca^2+-free HBSS solution at […] of the desired concentration is added to a well and incubated for 5 minutes at RT. 10 μL of thapsigargin prepared in a Ca^2+-free HBSS solution at 5.5× of the desired concentration (5.5 uM) is added to each well and incubated for an additional 25 minutes. The initial baseline fluorescence signal is measured with a FLIPR^384 (Molecular Devices) plate reader. 5 μL of 12× calcium in HBSS (12 mM) is added and changes in cellular fluorescence arc measured with the FLIPR^384 plate reader. In each well, the change in the fluorescent signal as a function of time due to calcium entry into the cell is determined by calculating the difference between the fluorescent signal measured 7 seconds after calcium addition and the initial baseline fluorescence signal at time zero (t=0). This parameter is designated Upslope. The IC50 value is calculated as the concentration at which 50% of the Upslope is inhibited.
`C=Cn1nc(-c2nccs2)cc1-c1ccc(NC(=O)c2c(F)cccc2F)s1` [Compound 5, (2,6-difluorophenyl)-N-[5-(3-(1,3-thiazol-2-yl)-1-vinylpyrazol-5-yl](2-thienyl)] carboxamide]: the IC50 worked out at 106 nM.

Still in this experiment, the particulars now being: Rattus norvegicus, thapsigargin, Upslope of fluo-4 signal, Table iii, read-out: RBL-2H3 (IC50, μmol).
For the compound `Cc1oc(C(F)(F)F)nc1-c1ccc(NC(=O)c2c(F)cccc2F)nc1` [Compound 14, 2,6-difluoro-N-(5-(5-methyl-2-(trifluoromethyl)oxazol-4-yl)pyridin-2-yl)benzamide], the IC50 was below 600 nM.

For `Cc1ccccc1C(=O)Nc1ccc(-c2nc(C(F)(F)F)oc2C)cn1` [Compound 15], the IC50 was below 600 nM.

As to `Cc1oc(C(F)(F)F)nc1-c1ccc(NC(=O)c2ccccc2F)nc1` [Compound 16], the IC50 is below 600 nM.

For the compound `Cc1oc(C(F)(F)F)nc1-c1ccc(NC(=O)c2c(F)cncc2F)nc1` [Compound 17, 3,5-difluoro-N-(5-(5-methyl-2-(trifluoromethyl)oxazol-4-yl)pyridin-2-yl)isonicotinamide], the IC50 was below 600 nM.

In the case of `Cc1oc(C(F)(F)F)nc1-c1ccc(NC(=O)c2cccc(F)c2C)nc1` [Compound 19, 3-fluoro-2-methyl-N-(5-(5-methyl-2-(trifluoromethyl)oxazol-4-yl)pyridin-2-yl)benzamide], the IC50 was below 600 nM.

On to `CCc1oc(C(F)(F)F)nc1-c1ccc(NC(=O)c2ccccc2F)nc1` [Compound 24, N-(5-(5-ethyl-2-(trifluoromethyl)oxazol-4-yl)pyridin-2-yl)-2-fluorobenzamide], for which the IC50 was below 600 nM.

In the case of `CCc1oc(C(F)(F)F)nc1-c1ccc(NC(=O)c2c(F)cccc2F)nc1` [Compound 25, N-(5-(5-ethyl-2-(trifluoromethyl)oxazol-4-yl)pyridin-2-yl)-2,6-difluorobenzamide], the IC50 is below 600 nM.

The experiment is the same for the next values; noted with them: Rattus norvegicus, thapsigargin, Upslope of fluo-4 signal, Table iv, read-out: RBL-2H3 (IC50, μmol).
As for `Cn1nc(-c2nccs2)cc1-c1ccc(NC(=O)c2c(F)cccc2F)s1` [Compound 6, (2,6-difluorophenyl)-N-[5-[1-methyl-3-(1,3-thiazol-2-yl)pyrazol-5-yl](2-thienyl)] carboxamide], the IC50 was below 600 nM.

As for `Cn1nc(-c2nccs2)cc1-c1ccc(NC(=O)c2ccc(F)cc2F)s1` [Compound 7, (2,4-difluorophenyl)-N-[5-[1-methyl-3-(1,3-thiazol-2-yl)pyrazol-5-yl](2-thienyl)] carboxamide], the IC50 was below 600 nM.

Take `Cn1nc(-c2nccs2)cc1-c1ccc(NC(=O)c2c(F)cc(F)cc2F)s1` [Compound 10, (2,4,6-trifluorophenyl)-N-[5-[1-methyl-3-(1,3-thiazol-2-yl)pyrazol-5-yl](2-thienyl)] carboxamide]: the IC50 was below 600 nM.

On to `CCn1nc(-c2nccs2)cc1-c1ccc(NC(=O)c2c(F)cccc2F)s1` [Compound 15], for which the IC50 was below 600 nM.

On to `CCn1nc(-c2nccs2)cc1-c1ccc(NC(=O)c2c(F)cc(F)cc2F)s1` [Compound 16], for which the IC50 is below 600 nM.

For the compound `Cc1cccc(F)c1C(=O)Nc1ccc(-c2cc(-c3ccccc3F)nn2C)s1` [Compound 23], the IC50 is below 600 nM.

Consider `Cn1nc(-c2ccccn2)cc1-c1ccc(NC(=O)c2c(F)cc(F)cc2F)s1` [Compound 27, 2,4,6-trifluoro-N-(5-(1-methyl-3-(pyridin-2-yl)-1H-pyrazol-5-yl)thiophen-2-yl)benzamide], for which the IC50 was below 600 nM.

`Cn1nc(-c2ccccn2)cc1-c1ccc(NC(=O)c2c(F)cccc2F)s1` [Compound 28, 2,6-difluoro-N-(5-(1-methyl-3-(pyridin-2-yl)-1H-pyrazol-5-yl)thiophen-2-yl)benzamide]: the IC50 is below 600 nM.

For another experiment, the target named is T1, Orai1/STIM1 (Homo sapiens, UniProt Q96D31).
T1 construct: c-myc (C); expressed in transfected cells; host or cells: HEK-293 cells stably overexpressing human STIM1, stably transfected with pcDNA3.1-Orai1-cmyc
T1 sequence (Q96D31 whole entry): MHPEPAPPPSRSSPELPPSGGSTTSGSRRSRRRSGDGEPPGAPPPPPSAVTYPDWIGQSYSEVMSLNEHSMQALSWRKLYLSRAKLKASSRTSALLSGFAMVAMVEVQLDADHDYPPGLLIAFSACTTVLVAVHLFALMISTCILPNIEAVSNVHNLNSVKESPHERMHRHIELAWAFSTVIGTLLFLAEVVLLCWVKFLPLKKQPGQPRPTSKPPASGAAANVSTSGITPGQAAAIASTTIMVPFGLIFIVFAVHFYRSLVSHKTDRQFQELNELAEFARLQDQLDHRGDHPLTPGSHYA
The experiment can be described thus: Fluorescence-based assay of store-operated calcium entry in Orai1/STIM1 stable cells. In kind it is cell-based. As to conditions: HEK-293 cells stably expressing human STIM1 and Orai1; Peak-Basal fluo-4 signal; Table iv; read-out: Orai1/STIM1 (IC50, μmol). The method, then:
A. Fluorescence-based Assay of Store-Operated Calcium Entry in Orai1/STIM1 Stable Cells.
Cells stably expressing recombinant human STIM1 and Orai1 are generated by transfecting a human Orai1 expression plasmid (pcDNA3.1-Orai1-cmyc) into HEK-293 cells stably overexpressing human ST1M1 (Roos et al. 2005 JCB 169(3): 435-445). Colonies of cells stably expressing both STIM1 and Orai1 proteins are selected and then subcloned by limiting dilution. Cells were cultured at 37° C./6% CO2 in complete medium with 10% FBS and appropriate selection markers.
The day prior to performing the assay Orai1/STIM1 stable cells are plated in 50 μL of complete medium at 90-95% confluence in a 384 well plate. Cells are grown at 37° C./6% CO2 overnight. […] The initial baseline fluorescence signal is then measured with a FLIPR^384 (Molecular Devices) plate reader. Calcium entry is initiated by adding 5 μl of 10× CaCl2 (10 mM) in HBSS, and changes in cellular fluorescence are measured with the FLIPR^384 plate reader. In each well, the magnitude of the fluorescence signal as a result of calcium entry into the cell is determined by calculating the difference between the peak fluorescence signal measured after calcium addition and the initial baseline fluorescence signal (designated Peak-Basal). […]
In the case of `Cc1cccc(F)c1C(=O)Nc1ccc(-c2cc(-c3ccccc3F)nn2C)s1` [Compound 23], the IC50 fell in the range of 600 to 1200 nM.

The next experiment relates to JR251. As to the kind of experiment: JR251 IC50 (Table v).
Details: not given
The class given is cell-based.
As to `C=Cn1nc(-c2nccs2)cc1-c1ccc(NC(=O)c2c(F)cccc2F)s1` [Compound 5, (2,6-difluorophenyl)-N-[5-(3-(1,3-thiazol-2-yl)-1-vinylpyrazol-5-yl](2-thienyl)] carboxamide], the IC50 worked out at 1210 nM.
